The results in this text go back to the NIST ThermoML archive (doi:10.1016/j.jct.2005.02.003).

± gives the expanded uncertainty stated by the source.

The conditions of series [1]: Crystal; Adiabatic calorimetry.
Series [2] can be described thus: Molar enthalpy of transition or fusion. The following applies: Crystal; Adiabatic calorimetry.

In the case of `CC(C)COC(C)(C)C` [isobutyl tert-butyl ether], the Triple point temperature in series [1] was determined as 162.33 ± 0.05 K. In addition, in series [2], the “Molar enthalpy of transition or fusion” value amounted to 2.067 ± 0.012 kcal/mol.
